# Columns and labels:
# QuantiLum Luciferase [1] = target: T1, QuantiLum Luciferase (Photinus pyralis, UniProt P08659); assay: Residual active luciferase after reaction with luciferin derivatives (Steady Glo); format: biochemical, firefly; design: unit not given here
# T1 construct: purchased Promega Corporation E170
# Description: (§1) After producing the solutions in Table 37, the volume of all reactions was adjusted to 990 µl with water. […] While the light reading was being taken, a 10 µl sample of the reaction was diluted to 500 µl with enzyme stop solution (cooled on ice to 4°C) mixed and placed on ice and a second sample of 90 µl of reaction was added to 10 µl of Gel/HPLC stop and the tube placed at -20°C. A timer was started with the start of the first reaction and the start times of the remaining reactions was noted. At 15, 30, 45 and 60 minutes, each reaction was sampled as above and the light produced in the luminometer tubes was measured. At 7 and 22 minutes, the light produced in the luminometer tubes was read, but the reactions were not sampled.
# After all samples were taken, 50 µl of the sample diluted into enzyme stop solution was mixed with 50 µl of Steady Glo Luciferase Reagent (Promega) and the light produced measured after incubating at room temperature for 10 minutes. This measured the active luciferase in the initial reaction.
# as §1, with “40,” for “37,”
# QuantiLum Luciferase [2] = target: T1, QuantiLum Luciferase; assay: Firefly luciferase reaction with luciferin derivatives: light emission over time (with or without ATP, EDTA, coenzyme A, DTT); format: biochemical; design: unit not given here
# Description: Gel and HPLC stop solution. Solid EDTA (free acid) was placed in a beaker with water and the pH of the solution adjusted to pH 7.0. The solution was then adjusted in volume to produce a solution 400 mM in EDTA.
# Enzyme stop solution. A solution was prepared containing 20 mM Bis Tris, pH 6.5, 2 mM EDTA and 1mg/ml bovine serum albumin.
# Reaction buffer (2X). A solution was made containing 100 mM HEPES buffer, pH 8.0; 10 mM MgCl2.
# DTT stock. Solid DTT (dithiothreatol) was dissolved in water and then adjusted to pH 8.0 with solid sodium hydroxide. The solution was then adjusted in volume to produce a solution 1 M in DTT.
# as §1
# as §1, with “40,” for “37,”
# beta-glucuronidase (GUS) = target: T2, beta-glucuronidase (GUS) (Homo sapiens, UniProt P08236); assay: Beta-glucuronidase assay with luciferin 6'-glucuronide (luminescent) or 4-methylumbelliferyl glucuronide (fluorescent); format: biochemical; settings: 50 mM MES, pH 6.3, 15 minutes
# T2 construct: purchased Sigma-Aldrich
# T2 sequence (P08236 23-651): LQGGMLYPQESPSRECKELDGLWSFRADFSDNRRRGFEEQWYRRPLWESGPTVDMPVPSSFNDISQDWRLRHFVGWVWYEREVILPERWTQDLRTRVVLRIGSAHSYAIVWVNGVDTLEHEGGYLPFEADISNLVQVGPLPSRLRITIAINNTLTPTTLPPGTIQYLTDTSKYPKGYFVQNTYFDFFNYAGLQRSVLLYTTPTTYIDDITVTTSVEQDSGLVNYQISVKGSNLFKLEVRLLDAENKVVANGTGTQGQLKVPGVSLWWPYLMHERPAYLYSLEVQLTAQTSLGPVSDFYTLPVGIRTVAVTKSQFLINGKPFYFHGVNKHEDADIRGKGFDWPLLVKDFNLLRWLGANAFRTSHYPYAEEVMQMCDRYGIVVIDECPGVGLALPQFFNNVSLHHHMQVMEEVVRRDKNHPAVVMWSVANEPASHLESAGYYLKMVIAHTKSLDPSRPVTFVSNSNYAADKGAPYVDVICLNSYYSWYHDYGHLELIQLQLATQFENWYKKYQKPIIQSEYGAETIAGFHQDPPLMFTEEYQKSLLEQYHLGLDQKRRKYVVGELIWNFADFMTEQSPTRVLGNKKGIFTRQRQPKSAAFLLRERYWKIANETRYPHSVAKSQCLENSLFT
# Description: The source of the human enzyme was Sigma-Aldrich. GUS was incubated with the substrate in 50 mM MES, pH 6.3, for 15 minutes. […]
# luciferase = assay: No-enzyme control: activity of luciferase towards the luciferin derivative (background luminescence); settings: no GUS, 50 mM MES, pH 6.3
# Description: The reactions (Table 1) were assembled by first adding the water and 1 M BisTris solutions in individual 0.5 ml microfuge tubes, then adding the other components except for the GST #3 solution. Finally, the GST #3 (Figure 12) solution was added to the reactions, the resulting solution was mixed, and the time of addition noted. […]
# The GST #3 addition was performed last and the solutions were mixed immediately after addition of GST #3. […] After mixing, the light produced by the solution was measured using a Turner TD 20/20 luminometer.
# After assembly, the enzyme stock solutions were diluted 1:10 into 10 mM HEPES, pH 7.5 and the following additions were made to the reactions.
# A 5 µl sample of the luciferol DMF solution was added to each of the reactions above and a timer was started upon the addition of the first luciferol/DMF solution to reaction 1. All reactions were kept at room temperature.
# After incubating 5 minutes at room temperature, the light produced by these samples was measured using a Turner TD 20 luminometer.
# To initiate the conversions, 5 µl of luciferol solution was added to reactions […], 6-9, and 11-15, and 10 µl of luciferol was added to reactions 5 and 10 and the tubes mixed after that addition. Immediately after luciferol addition to reaction 1, a timer was started and the time of luciferol addition to the other tubes noted. After mixing, reaction 11-15 were placed at 37°C.
# After incubating 10 minutes at room temperature, the light produced by these samples was read using a Turner TD 20 luminometer (Table 18).
# To initiate Step 1, 45 µl of enzyme and buffer were added to each well.
# Solution A and Solution B are components of the NADPH Regeneration System (V9510, Promega Corp., Madison WI). […] Solution B contains 40 units/ml glucose-6-phosphate dehydrogenase in 5 mM citrate pH 5.5.
# T1 sequence (P08659 whole entry): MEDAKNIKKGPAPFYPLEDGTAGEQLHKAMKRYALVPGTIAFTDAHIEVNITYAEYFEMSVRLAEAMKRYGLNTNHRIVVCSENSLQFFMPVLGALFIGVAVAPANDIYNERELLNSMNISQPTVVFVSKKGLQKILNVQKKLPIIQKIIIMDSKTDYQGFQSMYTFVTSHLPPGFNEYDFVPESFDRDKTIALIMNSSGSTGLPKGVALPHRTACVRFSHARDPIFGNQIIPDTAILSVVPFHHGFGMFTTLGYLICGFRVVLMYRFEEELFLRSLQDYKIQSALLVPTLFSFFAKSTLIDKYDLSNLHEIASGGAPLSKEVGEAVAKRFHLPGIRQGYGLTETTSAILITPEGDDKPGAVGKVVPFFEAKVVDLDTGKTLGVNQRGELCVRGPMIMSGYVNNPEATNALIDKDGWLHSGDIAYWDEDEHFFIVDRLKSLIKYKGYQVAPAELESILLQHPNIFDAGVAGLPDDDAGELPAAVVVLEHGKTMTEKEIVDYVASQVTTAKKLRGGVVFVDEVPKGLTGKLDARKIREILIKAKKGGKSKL
structure (smiles),measurement,setting,value
O=C(O)[C@H]1CSC(c2nc3ccc(OCc4ccccc4)cc3s2)=N1 [Luc'in BE],Light reading from residual active enzyme at time,"QuantiLum Luciferase [1]; +CoA, 0 min",186.7
same,Light reading from residual active enzyme at time,"QuantiLum Luciferase [1]; +CoA, 15 min",179.6
same,Light reading from residual active enzyme at time,"QuantiLum Luciferase [1]; +CoA, 30 min",179.4
same,Light reading from residual active enzyme at time,"QuantiLum Luciferase [1]; +CoA, 45 min",157.9
same,Light reading from residual active enzyme at time,"QuantiLum Luciferase [1]; +CoA, 60 min",161.8
same,Light reading from residual active enzyme at time,"QuantiLum Luciferase [1]; No addition, 0 min",129.7
same,Light reading from residual active enzyme at time,"QuantiLum Luciferase [1]; No addition, 15 min",69.9
same,Light reading from residual active enzyme at time,"QuantiLum Luciferase [1]; No addition, 30 min",47.31
same,Light reading from residual active enzyme at time,"QuantiLum Luciferase [1]; No addition, 45 min",37.94
same,Light reading from residual active enzyme at time,"QuantiLum Luciferase [1]; No addition, 60 min",29.08
same,Light reading from residual active enzyme at time,"QuantiLum Luciferase [1]; w/o ATP, 0 min",168.3
same,Light reading from residual active enzyme at time,"QuantiLum Luciferase [1]; w/o ATP, 15 min",174.1
same,Light reading from residual active enzyme at time,"QuantiLum Luciferase [1]; w/o ATP, 30 min",171.7
same,Light reading from residual active enzyme at time,"QuantiLum Luciferase [1]; w/o ATP, 45 min",172.9
same,Light reading from residual active enzyme at time,"QuantiLum Luciferase [1]; w/o ATP, 60 min",164
same,Light reading at time,"QuantiLum Luciferase [2]; +Co A, 7 min",11.92
same,Light reading at time,"QuantiLum Luciferase [2]; +Co A, 22 min",9.941
same,Light reading at time,"QuantiLum Luciferase [2]; +CoA, 0 min",139.5
same,Light reading at time,"QuantiLum Luciferase [2]; +CoA, 15 min",10.99
same,Light reading at time,"QuantiLum Luciferase [2]; +CoA, 30 min",7.379
same,Light reading at time,"QuantiLum Luciferase [2]; +CoA, 45 min",7.284
same,Light reading at time,"QuantiLum Luciferase [2]; +CoA, 60 min",6.433
same,Light reading at time,"QuantiLum Luciferase [2]; +DTT, 0 min",948
same,Light reading at time,"QuantiLum Luciferase [2]; +DTT, 7 min",532.8
same,Light reading at time,"QuantiLum Luciferase [2]; +DTT, 15 min",417
same,Light reading at time,"QuantiLum Luciferase [2]; +DTT, 22 min",369.5
same,Light reading at time,"QuantiLum Luciferase [2]; +DTT, 30 min",331.6
same,Light reading at time,"QuantiLum Luciferase [2]; +DTT, 45 min",273.5
same,Light reading at time,"QuantiLum Luciferase [2]; +DTT, 60 min",226.9
same,Light reading at time,"QuantiLum Luciferase [2]; No addition, 0 min",135.2
same,Light reading at time,"QuantiLum Luciferase [2]; No addition, 7 min",22.61
same,Light reading at time,"QuantiLum Luciferase [2]; No addition, 15 min",12.79
same,Light reading at time,"QuantiLum Luciferase [2]; No addition, 22 min",9.256
same,Light reading at time,"QuantiLum Luciferase [2]; No addition, 30 min",6.928
same,Light reading at time,"QuantiLum Luciferase [2]; No addition, 45 min",4.879
same,Light reading at time,"QuantiLum Luciferase [2]; No addition, 60 min",3.311
same,Light reading at time,"QuantiLum Luciferase [2]; w/o ATP, 0 min",0.015
same,Light reading at time,"QuantiLum Luciferase [2]; w/o ATP, 7 min",0
same,Light reading at time,"QuantiLum Luciferase [2]; w/o ATP, 15 min",0.008
same,Light reading at time,"QuantiLum Luciferase [2]; w/o ATP, 22 min",0.005
same,Light reading at time,"QuantiLum Luciferase [2]; w/o ATP, 30 min",0
same,Light reading at time,"QuantiLum Luciferase [2]; w/o ATP, 45 min",0
same,Light reading at time,"QuantiLum Luciferase [2]; w/o ATP, 60 min",0.01
O=C(O)[C@H]1O[C@@H](Oc2ccc3nc(C4=N[C@@H](C(=O)O)CS4)sc3c2)[C@H](O)[C@@H](O)[C@@H]1O [drawing 190],"luminescence, + GUS",beta-glucuronidase (GUS); [substrate] 3.5 uM,"46,210"
same,"luminescence, + GUS",beta-glucuronidase (GUS); [substrate] 31.5 uM,"232,533"
same,"luminescence, + GUS",beta-glucuronidase (GUS); [substrate] 94.4 uM,"423,619"
same,"luminescence, + GUS",beta-glucuronidase (GUS); [substrate] 283.1 uM,"696,778"
same,"luminescence, + GUS",beta-glucuronidase (GUS); [substrate] 849.3 uM,"994,977"
same,"luminescence, + GUS",beta-glucuronidase (GUS); [substrate] 2548.0 uM,"1,335,243"
same,"luminescence, + GUS",beta-glucuronidase (GUS); [substrate] […],"107,502"
same,"luminescence, no GUS",luciferase; [substrate] 3.5 uM,"1,108"
same,"luminescence, no GUS",luciferase; [substrate] 31.5 uM,"5,068"
same,"luminescence, no GUS",luciferase; [substrate] 94.4 uM,"13,091"
same,"luminescence, no GUS",luciferase; [substrate] 283.1 uM,"34,127"
same,"luminescence, no GUS",luciferase; [substrate] 849.3 uM,"91,975"
same,"luminescence, no GUS",luciferase; [substrate] 2548.0 uM,"209,219"
same,"luminescence, no GUS",luciferase; [substrate] […],"2,190"
